Reference: patent US7439251B2, “Methods and compositions for treatment of central and peripheral nervous system disorders and novel compounds useful therefor” (Israel Institute for Biological Research, priority 2002, dated 2008)
Read-outs that look alike come from different tables or passages of the source.

Experiments:
[1] = Social memory (olfactory recognition) in naive rats; type: in vivo, rat; conditions: 0.5, 1 and 5 mg/kg p.o., vs placebo, dose-dependent
Procedure: Animals were kept at 21° C.±1, with an inverse light-dark cycle (light on from 2:00 P.M. to 2:00 A.M.). The sessions were conducted 7 hr into the dark part of the light/dark cycle, under red illumination. […] The time spent by the adult rat in investigating the juvenile rat was recorded. […] Thus under the influence of a purported memory enhancing drug, the time spent in investigating the same juvenile is expected to be reduced. […] Any reduction in social exploration of this different juvenile is thus considered as reflecting a nonspecific effect of the drug (i.e., not memory related). On no occasion was a subject tested twice with the same juvenile stimulus animal, nor was a juvenile used more than once in a 48-hr period. […] Time spent in social investigation of stimulus juvenile rat was measured (in sec) and then expressed for each animal as the ratio of the second exposure to the first exposure (Ratio of Investigation Duration (RID)). […] Analysis for repeated measurement was made by a 3-way ANOVA and post hoc comparisons were made by simple main effects contrasts analysis.

tau = experiment: Tau phosphorylation, AT8 immunoblot; type: cell-based; conditions: 100 μM; to the control level
Text: Following the experimental design of Sadot et al., J.Neurochem. […] By linking an M1 agonist to an antioxidant moiety tau phophorylation may be decreased, providing a new therapeutic strategy in a variety of CNS disease states due to combined damage due to oxidative stress and tau hyperphosphorylation.

[2] = test system: cortical and hippocampal cell culture; experiment: Protection against NMDA-induced cell death in primary rat brain cultures; conditions: for neuroprotective potency against 200 μM NMDA, compared with 20 μM MK801: 100 μM agonist; for prevention of NMDA-induced cell death: 20-24 hrs
[3] = Pharmacokinetic study in dogs; type: in vivo, Beagle dog; conditions: for bioavailability: Beagle, dog, plasma, po, read-out: Bioavailability (% F)
Text: The results of the PK profile of AF292 in rats and Beagle dogs (overnight fasting; drug administered in water solution; gavage) are listed in Table 1.

human M1 receptor = biological target: T1, human M1 receptor (Homo sapiens, UniProt P11229); experiment: Arachidonic acid (AA) release, human M1; type: cell-based
T1 construct: expressed in transfected cells
T1 sequence (P11229 1-460): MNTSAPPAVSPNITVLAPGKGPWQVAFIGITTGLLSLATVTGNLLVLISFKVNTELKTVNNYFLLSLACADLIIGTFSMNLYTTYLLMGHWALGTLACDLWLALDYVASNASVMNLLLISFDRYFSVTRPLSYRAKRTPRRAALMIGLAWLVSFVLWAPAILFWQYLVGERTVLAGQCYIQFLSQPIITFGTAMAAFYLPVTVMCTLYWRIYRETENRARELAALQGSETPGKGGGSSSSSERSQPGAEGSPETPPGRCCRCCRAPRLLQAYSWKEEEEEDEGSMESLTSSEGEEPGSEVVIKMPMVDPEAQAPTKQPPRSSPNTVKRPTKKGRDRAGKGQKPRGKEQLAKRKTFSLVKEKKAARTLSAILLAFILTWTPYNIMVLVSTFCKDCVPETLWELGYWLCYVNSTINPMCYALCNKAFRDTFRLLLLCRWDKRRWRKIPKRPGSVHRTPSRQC

[4] = Passive avoidance in trihexyphenidyl treated rats; type: in vivo, rat; conditions: for Trihexyphenidyl-rats-Passive avoidance, effect: AF292 0.03, 0.05, 0.1, 0.3, 0.5 mg/kg p.o., AF267B 0.5, 1, 5; for Trihexyphenidyl-rats-Passive avoidance, MED: p.o.
Text: Trihexyphenidyl is a selective M1 muscarinic antagonist that crosses the blood brain barrier and induces memory and learning impairments (Bymaster et al. J Pharmacol Exp Ther 267: 16-24, 1993. Roldan et al Neurosci. Lett. 230: 93-96, 1997; Kimura et al Brain Res. 834: 6-12, 1999).
Naive Wistar rats were used in the experiments below. The passive avoidance (PA) task is comprised of training (acquisition) phase and a retention phase. In the training procedure each rat was individually placed in the small illuminated compartment and after 60 sec. of familiarization/adaptation, the door to the large compartment was opened and the latency to enter was measured (Initial Latency). Immediately following entry into the dark compartment, the door was closed and inescapable foot shock (0.6 mA for 3 sec) was delivered through the grid floor. A cutoff point of 180 sec was used for initial latency. […] After the acquisition trial the rat was returned to its home cage. Retention of the passive avoidance task was measured 24 h later, by again placing the rat in the light compartment and after a 60 sec adaptation interval, the door was opened and the latency to renter the dark compartment was measured. A cutoff point of 300 sec was used for retention latency.

[5] = Morris water maze in C57BL/10SnJ (small hippocampus) vs C57BL6J mice; type: in vivo; conditions: for reversal test, swimming speed: normal hippocampi mice, AF150(S) 0.5 mg/kg, AF267B 1 mg/kg
Procedure: C57BL/10SnJ (B10) mice were selected due to their small hippocampi and decreased number of hippocampal pyramidal neurons; the cell loss seemed to be associated with poor spatial learning.
Each group of mice was randomly divided into 7 treatment groups (n=12-14/group). […] All tested compounds and saline were administered once a day for 4 days before starting the behavioral testing, and then for the duration of the 5-day experiment, 30 minutes before testing.
Training: Each mouse was trained for four consecutive days, four trials (one block) per day, in which the platform position remained constant and was located in the center of the southeast quadrant of the pool. Within each block of four trials, each mouse started at each of the starting locations, but the sequence of locations was randomly selected. A trial consisted of placing a mouse by hand into the water facing the wall of the pool at one of four starting locations, north, south, east or west, around the pool's perimeter. Escape latency (the time to find the platform), path length (the distance traveled by the mouse) and speed (the swimming rate of the mouse) were recorded on each trial by the monitoring system.
For each mouse, the path length, escape latency, and swimming speed of the four trials on each of the 4 training days were grouped into blocks (one block for each day). […] Specific comparisons were performed, using the simple main effects contrasts analysis, which is specifically suited for testing significant interactions.
Transfer test. During trial No. 17, on the fourth day, the platform was entirely removed from the pool (a probe trial). In this trial, the mouse was placed into the water for a limited period (30 s), and its spatial bias was measured by recording the relative distribution of escape latency and path length over the four quadrants of the pool.
Reversal test. During trials 18-21, on the fifth day, the platform position was changed to the northwest quadrant, opposite to the training quadrant Thus, during reversal learning, the platform location was moved relative to the configuration of objects within the room, but the pool occupied the same place within the room throughout the entire experiment. Testing of the […] and measures taken were the same as in training.
For each mouse, the escape latency, path length and swimming speed of the reversal test (trials No. 18-21) were grouped into one block.

[6] = small hippocampus mice, both doses
[7] = small hippocampus mice, AF150(S) both doses, AF267B the higher dose
[8] = small hippocampus mice, AF compounds 0.5 and 1 mg/kg i.p., rivastigmine, nicotine 1 mg/kg i.p.
[9] = normal hippocampus mice, AF150(S) at 1 mg/kg

SMILES | investigation time of the same juvenile (RID) [1] | phosphorylated tau (AT8) (tau) | neuroprotective potency against 200 μM NMDA, compared with 20 μM MK801 [2] | prevention of NMDA-induced cell death [2] | AA release vs. CCh (as 100%) (human M1 receptor) [%] | Trihexyphenidyl-rats-Passive avoidance, effect [4] | Trihexyphenidyl-rats-Passive avoidance, MED [4] | reversal test, swimming speed [5] | training, escape latency ([5]; normal hippocampus mice) | training, swimming speed ([5]; normal hippocampus mice) | training, swimming speed ([5]; small hippocampus mice) | transfer test, spatial bias ([5]; small hippocampus mice) | reversal test, escape latency [5, 6] | training, path length [5, 7] | training, escape latency [5, 8] | further results
CC[C@@H]1SC2(CCN(C)CC2)NC1=O [AF267B, (S)-2-ethyl-8-methyl-1-thia-4,8-diaza-spiro[4.5]decan-3-one] | decreased the investigation time | induce dephosphorylation of tau proteins | slightly less | effective in prevention of cell death | 100 | 0.5, 1, 5 positive effects | MED 0.1-0.5 mg/kg, p.o. | significantly decreased | did not significantly affect the escape latencies | had no such effect | enhanced the swimming speed in a dose dependent manner | complete spatial bias | improved the escape latency | positively affected the performance | positively affected the training performance | bioavailability ([3]; Dogs., 1 mg/kg, p.o.): 53%; Tmax ([3]; Dogs., 1 mg/kg, p.o.): 34.8 to 45 min
CC1=NCC2(CCN(C)CC2)S1 [AF150(S), 2,8-Dimethyl-1-thia-3,8-diaza-spiro[4.5]dec-2-ene] | decreased the investigation time |  | slightly less | effective in prevention of cell death |  |  |  | significantly decreased | increased the escape latencies | impaired the swimming speed | enhancing effect of AF150(S) was equal in both doses | complete spatial bias | improved the escape latency | positively affected the performance | positively affected the training performance | reversal test, escape latency ([5]; normal hippocampus mice, AF150(S) at 0.5 mg/kg): impaired the escape latency; reversal test, path length [5, 9]: impairment of reversal learning; transfer test, spatial bias [5, 9]: only a partial spatial bias; training, path length ([5]; normal hippocampus mice, AF150(S) only the higher dose): impaired the path length
CC[C@@H]1SC2(CCNCC2)NC1=O [AF292, (S)-2-Ethyl-1-thia-4,8-diaza-spiro[4.5]decan-3-one] |  | induce dephosphorylation of tau proteins |  |  | > 88 | positive effects | ≤ 0.03 mg/kg |  |  |  |  |  |  |  |  | bioavailability ([3]; Dogs, 5 mg/kg. p.o.): 70%; Trihexyphenidyl-rats-Passive avoidance, duration ([4]; rat, in vivo): LONG DURATION OF ACTION; potency among the tested agonists ([4]; rat, in vivo): most potent compound among the tested agonists
